Laboratory results from paper PMC12298883, “Discovery of Cyclopentane-Based Phospholipids as Miltefosine Analogs with Superior Potency and Enhanced Selectivity Against Naegleria fowleri” (Pharmaceuticals, 2025).

What was measured:
[1] = Cytotoxicity assay for C6 cells (CellTiter-Blue); assay type: cell-based; details: rat, C6 glial cells, viability, mean ± SD
Protocol: (§1) A viability assay was performed to evaluate the inhibitory activity of the tested compounds by determining their IC50 values against N. fowleri, using miltefosine as a reference drug. To assess the selectivity of the tested compounds relative to miltefosine, cytotoxic values that reduced the viability of C6 glial cells by 50% were established.
(§2) N. fowleri Carter NF69 strain (ATCC 30215; American Type Culture Collection, Manassas, VA, USA) was used. Amoeba trophozoites were cultured and maintained in Nelson’s medium containing 5% foetal bovine serum (FBS; Gibco, Grand Island, NY, USA) and 1% penicillin/streptomycin (P/S; Gibco, Grand Island, NY, USA) at 37 °C [56]. C6 rat glial cells (C6 cells; ATCC CCL-107) were cultured in Dulbecco’s Modified Eagle’s Medium (DMEM; Gibco, Grand Island, NY, USA) supplemented with 10% FBS (Gibco, Grand Island, NY, USA) and 1% P/S (Gibco, Grand Island, NY, USA) at 37 °C in a humidified incubator under 5% CO2 atmosphere.
(§3) The potential cytotoxicity of tested compounds and miltefosine in C6 cells was analysed. The cells were seeded in a 96-well microplate (Thermo Fisher Scientific; 2 × 10^4 cells/well), respectively, and incubated overnight until 80% confluent. Serially diluted tested compounds and miltefosine were treated to the cells as described above. Morphological changes of the cells were observed by microscopic examination. Cell viability was determined using the CellTiter-Blue® Cell viability assay (Promega, […], USA). The cytotoxic concentrations 50 (CC50) of tested compounds and miltefosine were calculated using GraphPad Prism 9.1.0 software (GraphPad Software, San Diego, CA, USA). The […] (SI) was determined by the ratio between CC50 and IC50. Cells treated with 0.1% DMSO, which was confirmed not to alter the morphology of the cells by microscopic examination, were used as controls with 100% cell viability.

N. fowleri trophozoites = assay: JC-1 mitochondrial membrane potential assay; assay type: cell-based, Naegleria fowleri; details: at IC90, 48 h
Protocol: To determine whether the apoptotic death of N. fowleri induced by compounds 2a, 3b and 3d is associated with mitochondrial dysfunction, the mitochondrial membrane potential (ΔΨm) was assessed using a JC-1 assay. The potential difference across the membrane in functioning mitochondria leads to the accumulation of cationic lipophilic fluorescent JC-1 molecules, forming red fluorescence (J-aggregate). Mitochondrial dysfunction results in the loss of mitochondrial membrane potential, leading to the transition from J-aggregates to monomers (green fluorescence). […] The absence of green and strong red fluorescence in untreated amoebae indicates healthy, functional mitochondria maintaining their ΔΨm. The shift to predominantly green fluorescence upon treatment with miltefosine, as well as compounds 2a, 3b and 3d, signifies a loss of ΔΨm, a critical early event in the intrinsic apoptotic pathway (Figure 7). Disruption of ΔΨm leads to the release of pro-apoptotic factors from the mitochondria, triggering the caspase cascade and, ultimately cell death. This observation aligns with the previous finding of DNA fragmentation and membrane compromise, further solidifying the apoptotic mechanism of these compounds.
Figure 7 Disruption of mitochondrial functions in N. fowleri. Mitochondrial membrane potential changes. Aggregate form (RFP channel, Ex/Em = 550/650 nm), implying healthy mitochondria, was found in N. fowleri trophozoites treated with 0.1% DMSO (NC), while monomer (GFP channel, Ex/Em = 490/525 nm) indicating the collapse of mitochondrial membrane potential was increased in treated amoebae. Miltefosine (MF) was included as a positive control drug. Images were representatives of the cell population in three individual experiments. Size bar: 10 µm.
The electrochemical gradient changes across the mitochondrial membrane in N. fowleri upon treatment of compounds 2a, 3b and 3d were measured using the JC-1 Mitochondrial Membrane Potential Assay Kit (Abcam, Cambridge, UK). The amoeba trophozoites (5 × 10^4 cells/well) were seeded in a 96-well black/clear bottom plate and incubated with compounds 2a, 3b or 3d (IC90) at 37 °C for 48 h. The JC-1 assay was conducted as described previously. The amoebae treated with Nelson’s medium containing 0.1% DMSO and miltefosine (IC90) were used as negative and positive controls, respectively.

C6 glial cells = assay: Cytotoxicity assay for C6 cells (CellTiter-Blue); assay type: cell-based; details: C6 rat glial cells, viability; mean ± SD
Protocol: as §1, §2, §3

| Compound | CC50 [1] [µM] | mitochondrial membrane potential (ΔΨm), JC-1 (N. fowleri trophozoites) | CC50 (C6 glial cells) [µM] |
| --- | --- | --- | --- |
| CCCCCCCCCCCCCO[C@@H]1CCC[C@H]1COP(=O)([O-])OCC[N+](C)(C)C [Compound 2a] | 316.6 ± 2.1 | loss of ΔΨm | – |
| CCCCCCCCCCCCCCCCCCCCCCOC[C@@H]1CCC[C@H]1OP(=O)([O-])OCC[N+](C)(C)C [Compound 3d] | 84.9 ± 1.29 | loss of ΔΨm | – |
| CCCCCCCCCCCCCOC[C@@H]1CCC[C@H]1OP(=O)([O-])OCC[N+](C)(C)C [Compound 3b] | 159.5 ± 0.87 | loss of ΔΨm | – |
| CCCCCCCCCCCCCCCCOP(=O)([O-])OCC[N+](C)(C)C [Miltefosine] | 157.8 ± 1.49 | loss of ΔΨm | 158.9 ± 1.49 |
